Where two headings read alike, the source gives them in different places.
Tests used:
[1] = test system: Plasmodium falciparum T96 Chloroquinresistente Zellinie B; assay: microbe, parasite or virus in culture; type: cell-based; conditions: for IC50: Plasmodium falciparum, Erythrocyte, over 2 cycles
Text: (§1) • a) Durch konventionelles Züchten des Stammes Plasmodium falciparum T96 in einer 2 % (V/V) Suspension von humanen Erythrozyten wird der Grundorganismus-Zellinie A fortgepflanzt, welche eine normale Empfindlichkeit gegenüber Chloroquin aufweist. • b) Zellinie A des obigen Stammes wird unter analogen Standardbedingungen wie unter a) gezüchtet, jedoch mit Zusatz von immer ansteigenden Konzentrationen von Chloroquin, bis eine Chloroquinresistente Zellinie B resultiert, welche weiterhin in Kulturmedien mit einer 500 nM-Konzentration von Chloroquin andauernd normales Wachstum (dieselbe Wachstumsraten wie Zellinie A) aufweist.
(§2) • I. Die Züchtung von Testorganismen erfolgt unter den für Züchtung von Plasmodien üblichen Bedingungen auf einer 2 % Suspension von humanen Erythrozyten, supplementiert mit 50 mg/1 Hypoxanthin und gegebenenfalls unter Zugabe der getesteten Hemmsubstanz in gewünschter Konzentration. Die initiale Parasitämie (= der prozentuelle Anteil der zu Beginn von Plasmodien infizierten Erythrozyten) beträgt 1-2 %. Das Resultat (Hemmwirkung) wird als IC50 ausgewertet, d.h. jene Konzentration des Wirkstoffes, die eine Senkung der finalen Parasitämie um 50 %, d.h. eine 50%ige Hemmung des Wachstums, verursacht. • II. In einer alternativen Versuchsanordnung wird beim Einhalten aller übrigen Bedingungen ohne Zugabe von Hypoxanthin und mit einer initialen Parasitämie von 0,5 % gearbeitet.

[2] = test system: Plasmodium falciparum T96 Zellinie A; assay: Growth inhibition of Plasmodium falciparum T96 cell line A (normal chloroquine sensitivity) in culture on human erythrocytes; type: cell-based; conditions: Erythrocyte, over 2 cycles
Text: as §1
as §2, with “In einer alternativen Versuchsanordnung wird beim Einhalten aller übrigen Bedingungen ohne Zugabe von Hypoxanthin und mit einer initialen Parasitämie von 0,5 % gearbeitet.” left out

P. vinckei = conditions: cited from earlier work
[3] = test system: Plasmodium falciparum in Kultur an menschlichen Erythrozyten; conditions: in vitro culture; cited from earlier work
Bakterien = conditions: cited from earlier work
[4] = very high doses; cited from earlier work

CCN(CC)CCCC(C)Nc1ccnc2cc(Cl)ccc12 (stereo not drawn) [Chloroquin, 7-Chlor-4-(4-diethylamino-l-methylbutylamino)chinolin]
Vermehrungsfaktor ([1]; Versuchsanordnung I with 500 nM Chloroquin, within 48 hours): 7-9

CC(=O)N(O)CCCCCNC(=O)CCC(=O)N(O)CCCCCNC(=O)CCC(=O)N(O)CCCCCN [Desferrioxamin B, 6,17,28-Trihydroxy-7,10,18,21,29-pentaoxo-6,11,17,22,28-pentaaza-triacontanylamin]
IC50 ([2]; Versuchsanordnung I): 17 ± 3 µM | IC50 ([2]; Versuchsanordnung II): 5 µM | Wachstum des Parasiten (P. vinckei; 0,2 g/kg): das Wachstum des Parasiten deutlich hemmt | Wachstum des Parasiten (P. vinckei; 1,0 g/kg): ihn vollständig tötet | IC50 ([1]; Versuchsanordnung I, with 400 nM Chloroquin added): 3 ± 1 µM | IC50 ([1]; Versuchsanordnung I, without Chloroquin in test medium): 6 ± 1.5 µM | IC50 ([1]; Versuchsanordnung II, without Chloroquin in test medium): 2 ± 1 µM | Wirksamkeit gegen Chloroquin-resistenten Stamm im Vergleich zu normal empfindlichem Stamm ([1]; comparison of resistant with sensitive strain grown under the same conditions): um fast eine Grössenordnung wirksamer | Wachstum / Abtötung in vitro [3]: nicht nur in ihrem Wachstum gehemmt, sondern auch getötet | antibakterielle Wirksamkeit in vitro (Bakterien): gewisse allgemeine antibakterielle Wirksamkeit in vitro | Toxikologie [4]: auch in sehr hohen Dosen toxikologisch einwandfrei

CC1(C(=O)O)CSC(c2ncccc2O)=N1 (stereo not shown) [Desferri-ferrithiocin, 2-(3-Hydroxy-2-pyridyl)-4-methyl-2-thiazolin-4-carbonsäure]
antibakterielle Wirksamkeit in vitro (Bakterien): gewisse allgemeine antibakterielle Wirksamkeit in vitro

From patent EP0214101A2, “Use of iron(III) chelators of the type desferrioxamine-B and desferriferrithiocine in the treatment of malaria” (CIBA-GEIGY AG, priority 1985, dated 1987)
